Values quoted from earlier work in patent US20200129491A1, “METHODS OF TREATING BRAIN TUMORS USING COMBINATION THERAPY” (AGIOS PHARMACEUTICALS, INC., priority 2017, published 2020).
Read-outs that look alike come from different tables or passages of the source.

Key:
mIDH1 cells = conditions: in vitro, mIDH1 glioma models; R. J. Molenaar et al., Cancer Research 75:4790-4802 (2015)
mIDH1-driven gliomas = conditions: some model systems; D. Rohle et al. Science 340:626-630 (2013)
mutant IDH1 proteins [1] = conditions: biochemical assays
mutant IDH1 proteins [2] = conditions: cellular assays

## Cc1ccccc1C(C(=O)NC1CCCCC1)N(C(=O)Cn1ccnc1C)c1cccc(F)c1 (centres unmarked) [AGI-5198]
Mutant IDH1 (mIDH1)
  Inhibition of mutant IDH1 (mIDH1): inhibit
mIDH1 cells
  Sensitivity of mIDH1 cells to radiation therapy: desensitized to radiation therapy
mIDH1-driven gliomas
  Growth of mIDH1-driven gliomas: repress growth

## N#Cc1ccnc(N2C(=O)CC[C@H]2C(=O)N(c2cncc(F)c2)[C@H](C(=O)NC2CC(F)(F)C2)c2ccccc2Cl)c1 [Ivosidenib, (S)—N—((S)-1-(2-Chlorophenyl)-2-(3,3-difluorocyclobutylamino)-2-oxoethyl)-1-(4-cyanopyridin-2-yl)-N-(5-fluoropyridin-3-yl)-5-oxopyrrolidine-2-carboxamide]
Mutant IDH1 proteins [1]
  Inhibition of mutant IDH1 proteins: inhibitor of mutant IDH1 proteins
Mutant IDH1 proteins [2]
  Inhibition of mutant IDH1 proteins: inhibitor of mutant IDH1 proteins
